Results: patent US11459397B2, “Self-crosslinking antibodies” (Meditope Biosciences, Inc., priority 2016, dated 2022)
pKd: −log10 of the molar value.

What was measured:
CLL = details: Phase I, cited from earlier work
[1] = modulation of self-crosslinking by free meditope, silver-stained native gel; type: physicochemical; details: 1 μM free meditope, 100 nM SnAP-body variants 1, 2, 3
cetuximab Fab fragment = assay: meditope binding to cetuximab Fab; details: meditope-binding site within the central cavity of the cetuximab Fab fragment; read-out: binding constant
Excerpt: In some examples, the meditope-binding site is a structural feature of the monoclonal antibody cetuximab. Thus, in some cases, the meditope-binding site contains residues corresponding to those within the meditope binding site of cetuximab.

[2] = test system: HER2 expressing SK-OV-3-Luc ovarian xenograft; assay: efficacy in SK-OV-3-Luc ovarian xenograft subcutaneous model; type: in vivo, mice; details: 20 mg/kg ip BIW, day 52 pi
Experimental: This study was performed to evaluate the efficacy of ADC constructs against HER2 expressing SK-OV-3-Luc ovarian xenograft subcutaneous model using both bioluminescent imaging and traditional tumor caliper measurement. Sixty-five female athymic nudes, 4 weeks old of age were obtained from Charles River. SK-OV-3-Luc cells were expanded using standard tissue culture technique. On the day of implantation, 2.5×10^6 cells in incomplete media with 30% matrigel were implanted to the right lower flank of each mouse. Animals were stratified into 7 groups of 8 mice for treatment based on the total flux (Perkin Elmer IVIS Lumina XRMS II) at day 10 pi. Animals were weighed twice weekly in conjunction with tumor measurements. Bioluminescent Imaging were performed once a week. Tumor mass were calculated using the following formula: Mass (mg)=Tumor volume (mm^3)=d^2×D/2, where d and D are the shortest and longest diameter in mm, respectively.

[3] = 46 heavily pretreated CLL patients, single agent

cetuximab Fab fragment, sequence (as listed by the source, other chains not shown): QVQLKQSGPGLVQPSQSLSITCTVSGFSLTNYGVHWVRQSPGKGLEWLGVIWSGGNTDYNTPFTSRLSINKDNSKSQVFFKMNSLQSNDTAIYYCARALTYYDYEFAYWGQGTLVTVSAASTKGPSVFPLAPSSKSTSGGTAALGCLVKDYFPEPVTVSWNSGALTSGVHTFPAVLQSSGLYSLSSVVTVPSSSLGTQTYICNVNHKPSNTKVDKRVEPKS

lumiliximab: primatized anti-CD23 mAb that contains cynomolgus macaque variable regions and human constant regions (IgG1-κ)
objective Complete Responses (CRs) or Partial Responses (PRs) (CLL; [3]): no objective Complete Responses (CRs) or Partial Responses (PRs) were observed
patients with decreased peripheral blood lymphocyte counts (CLL; [3]): 91 % of patients
patients with reduced enlarged lymph node size (CLL; [3]): 52 % of patients
MTD (maximum tolerated dose) (CLL; CLL patients): not reached
adverse events (AEs) (CLL; CLL patients): majority of adverse events (AEs) are limited to grade 1/2
immunosuppression (CLL; CLL patients): not immunosuppressive

C-QFDLSTRRLK-C [cQFD meditope]
effect of free meditope on antibody self-crosslinking [1]: can interfere with the self-crosslinking ability of self-crosslinking antibodies
pKd (cetuximab Fab fragment): ~6.15

CC(=O)O[C@H]1C(=O)[C@@]2(C)[C@H]([C@H](OC(=O)c3ccccc3)[C@]3(O)C[C@H](OC(=O)[C@H](O)[C@@H](NC(=O)c4ccccc4)c4ccccc4)C(C)=C1C3(C)C)[C@]1(OC(C)=O)CO[C@@H]1C[C@@H]2O [Paclitaxel]
TGI [2]: 2.80%
